Results: patent US9290451B2 (Hoffmann-La Roche Inc., priority 2011, dated 2016)
pEC50: −log10 of the molar value.

Key:
[1] = target: human CB2 receptors (Homo sapiens (Human), UniProt P34972); experiment: cAMP assay, CHO cells expressing human CB2 receptors; assay type: cell-based; settings: CHO cells expressing human CB2, cAMP; read-out: human CB2 EC50
In short: (§1)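 Agonist EC50 values come from cAMP levels measured in intact CHO cells. Compounds act for 30 min at 30 °C in the presence of 1 mM IBMX, and cAMP is then detected by time-resolved energy transfer after lysis.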

[2] = target: human CB1 receptors (Homo sapiens (Human), UniProt P21554); experiment: cAMP assay, CHO cells expressing human CB1 receptors; assay type: cell-based; settings: CHO cells expressing human CB1, cAMP; read-out: human CB1 EC50
In short: as §1

Sequence of human CB2 receptors (P34972 whole entry): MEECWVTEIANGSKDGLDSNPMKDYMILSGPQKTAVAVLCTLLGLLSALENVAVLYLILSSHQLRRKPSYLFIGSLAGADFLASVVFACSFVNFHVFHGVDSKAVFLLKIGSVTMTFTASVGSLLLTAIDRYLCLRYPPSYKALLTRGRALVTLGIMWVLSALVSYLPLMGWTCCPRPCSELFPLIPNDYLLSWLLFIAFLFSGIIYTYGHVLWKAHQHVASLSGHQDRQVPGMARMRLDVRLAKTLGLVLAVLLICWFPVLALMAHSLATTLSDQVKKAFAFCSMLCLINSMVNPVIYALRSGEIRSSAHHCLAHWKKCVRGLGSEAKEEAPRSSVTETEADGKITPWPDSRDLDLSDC
Sequence of human CB1 receptors (P21554 whole entry): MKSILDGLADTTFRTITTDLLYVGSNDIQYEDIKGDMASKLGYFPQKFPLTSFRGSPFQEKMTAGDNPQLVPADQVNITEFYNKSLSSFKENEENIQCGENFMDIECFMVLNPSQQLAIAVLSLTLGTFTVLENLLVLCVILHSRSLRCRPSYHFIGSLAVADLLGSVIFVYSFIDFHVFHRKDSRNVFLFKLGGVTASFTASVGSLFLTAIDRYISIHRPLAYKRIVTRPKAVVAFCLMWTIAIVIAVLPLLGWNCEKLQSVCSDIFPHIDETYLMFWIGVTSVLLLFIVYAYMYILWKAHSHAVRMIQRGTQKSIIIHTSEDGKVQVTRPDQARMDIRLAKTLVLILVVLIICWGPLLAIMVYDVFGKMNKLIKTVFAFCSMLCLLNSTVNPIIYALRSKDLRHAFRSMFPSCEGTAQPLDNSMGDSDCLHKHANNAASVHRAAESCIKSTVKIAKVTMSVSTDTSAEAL

CC(C)(NC(=O)c1ccc(C2CC2)c(OCC2CC2)n1)c1nccs1 [Example 44, 5-Cyclopropyl-6-cyclopropylmethoxy-pyridine-2-carboxylic acid (1-methyl-1-thiazol-2-yl-ethyl)-amide]
pEC50 [1]: 7.87 | pEC50 [2]: 5.79

Cc1nc([C@@](C)(NC(=O)c2ccc(C3CC3)c(S(=O)(=O)CC(C)C)n2)C2CC2)no1 [Example 382, (−)-5-Cyclopropyl-6-(2-methyl-propane-1-sulfonyl)-pyridine-2-carboxylic acid [1-cyclopropyl-1-(5-methyl-[1,2,4]oxadiazol-3-yl)-ethyl]-amide]
pEC50 [1]: 7.29 | pEC50 [2]: < 5.00

Cc1nc(C(C)(C)NC(=O)c2ccc(C3CCCC3)c(-c3cccc(Cl)c3)n2)no1 [Example 106, 6-(3-Chloro-phenyl)-5-cyclopentyl-pyridine-2-carboxylic acid [1-methyl-1-(5-methyl-[1,2,4]oxadiazol-3-yl)-ethyl]-amide]
pEC50 [1]: 6.67 | pEC50 [2]: < 5.00

Cc1noc(C(C)(C)NC(=O)c2ccc(C3CC3)c(OCC3CC3)n2)n1 [Example 176, 5-Cyclopropyl-6-(cyclopropylmethoxy)-N-(2-(3-methyl-1,2,4-oxadiazol-5-yl)propan-2-yl)picolinamideinamide]
pEC50 [1]: 6.94 | pEC50 [2]: < 5.00

CC(C)C[C@H](NC(=O)c1ccc(N2CCCC2C)c(OCC2CC2)n1)C(N)=O (stereo partly drawn) [Example 32, 6-Cyclopropylmethoxy-5-(2-methyl-pyrrolidin-1-yl)-pyridine-2-carboxylic acid ((S)-1-carbamoyl-3-methyl-butyl)-amide]
pEC50 [1]: 8.81 | pEC50 [2]: 5.86

O=C(c1ccc(N2CCCC2)c(OCC2CC2)n1)N1CCS(=O)(=O)CC1 [Example 15]
pEC50 [1]: 7.02 | pEC50 [2]: < 5.00

CCOC(=O)C(CC)(CC)NC(=O)c1ccc(N2CCCC2)c(OCC2CC2)n1 [Example 289, 2-[(6-Cyclopropylmethoxy-5-pyrrolidin-1-yl-pyridine-2-carbonyl)-amino]-2-ethyl-butyric acid ethyl ester]
pEC50 [1]: 8.85 | pEC50 [2]: 6.63

CC(C)(NC(=O)c1ccc(N2CC(F)(F)C2)c(-c2cccc(Cl)c2)n1)c1nccs1 [Example 156, 6-(3-Chloro-phenyl)-5-(3,3-difluoro-azetidin-1-yl)-pyridine-2-carboxylic acid (1-methyl-1-thiazol-2-yl-ethyl)-amide]
pEC50 [1]: 6.48 | pEC50 [2]: < 5.00

CC[C@@H](NC(=O)c1ccc(C2CC2)c(OCC2CC2)n1)c1noc(C)n1 [Example 245, 5-Cyclopropyl-6-cyclopropylmethoxy-pyridine-2-carboxylic acid [(−)-1-(5-methyl-[1,2,4]oxadiazol-3-yl)-propyl]-amide]
pEC50 [1]: 7.69 | pEC50 [2]: < 5.00

Cc1nc([C@H](CC(C)C)NC(=O)c2ccc(C3CC3)c(OCC3CC3)n2)no1 [Example 242, 5-Cyclopropyl-6-cyclopropylmethoxy-pyridine-2-carboxylic acid [(+)-3-methyl-1-(5-methyl-[1,2,4]oxadiazol-3-yl)-butyl]-amide]
pEC50 [1]: 8.92 | pEC50 [2]: < 5.00

Cc1nc([C@@H](CC(C)C)NC(=O)c2ccc(C3CC3)c(OCC3CC3)n2)no1 [Example 243, 5-Cyclopropyl-6-cyclopropylmethoxy-pyridine-2-carboxylic acid [(−)-3-methyl-1-(5-methyl-[1,2,4]oxadiazol-3-yl)-butyl]-amide]
pEC50 [1]: 7.66 | pEC50 [2]: 6.08

Cc1nc(C(C)(C)NC(=O)c2ccc(C3CC3)c(OCC3CCCO3)n2)no1 (stereo not shown) [Example 166, 5-Cyclopropyl-6-(tetrahydro-furan-2-ylmethoxy)-pyridine-2-carboxylic acid [1-methyl-1-(5-methyl-[1,2,4]oxadiazol-3-yl)-ethyl]-amide]
pEC50 [1]: 7.52 | pEC50 [2]: < 5.00

CC(C)(NC(=O)c1ccc(C2CC2)c(-c2cccc(Cl)c2)n1)c1ncco1 [Example 95, 6-(3-Chloro-phenyl)-5-cyclopropyl-pyridine-2-carboxylic acid (1-methyl-1-oxazol-2-yl-ethyl)-amide]
pEC50 [1]: 7.08 | pEC50 [2]: < 5.00

CC(C)CC(C)(NC(=O)c1ccc(C2CC2)c(OCC2CC2)n1)C(N)=O (stereo not shown) [Example 178, N-(1-Amino-2,4-dimethyl-1-oxopentan-2-yl)-5-cyclopropyl-6-(cyclopropylmethoxy)picolinamide]
pEC50 [1]: 7.37 | pEC50 [2]: < 5.00

O=C(NC(c1ccccn1)C(F)(F)F)c1ccc(C2CC2)c(OCC2CCOCC2)n1 (stereo not shown) [Example 223, 5-Cyclopropyl-6-(tetrahydro-pyran-4-ylmethoxy)-pyridine-2-carboxylic acid (2,2,2-trifluoro-1-pyridin-2-yl-ethyl)-amide]
pEC50 [1]: 7.96 | pEC50 [2]: 6.18

CC(C)(NC(=O)c1ccc(C2CCCC2)c(-c2cccc(Cl)c2)n1)c1nccs1 [Example 128, 6-(3-Chloro-phenyl)-5-cyclopentyl-pyridine-2-carboxylic acid (1-methyl-1-thiazol-2-yl-ethyl)-amide]
pEC50 [1]: 6.62 | pEC50 [2]: < 5.00

CC(C)(CCS(C)(=O)=O)NC(=O)c1ccc(C2CC2)c(OCC2CC2)n1 [Example 349, 5-Cyclopropyl-6-cyclopropylmethoxy-pyridine-2-carboxylic acid (3-methanesulfonyl-1,1-dimethyl-propyl)-amide]
pEC50 [1]: 6.32 | pEC50 [2]: < 5.00

COC(=O)[C@@H](NC(=O)c1ccc(C2CC2)c(OCC2CC2)n1)C(C)(C)C [Example 239, (S)-2-[(5-Cyclopropyl-6-cyclopropylmethoxy-pyridine-2-carbonyl)-amino]-3,3-dimethyl-butyric acid methyl ester]
pEC50 [1]: 8.96 | pEC50 [2]: 7.04

Cc1nc(C(NC(=O)c2ccc(C3CC3)c(OCC3CCOCC3)n2)C2CC2)no1 (stereo not shown) [Example 219, 5-Cyclopropyl-6-(tetrahydro-pyran-4-ylmethoxy)-pyridine-2-carboxylic acid [cyclopropyl-(5-methyl-[1,2,4]oxadiazol-3-yl)-methyl]-amide]
pEC50 [1]: 7.97 | pEC50 [2]: 5.67

CC(C)C[C@H](NC(=O)c1ccc(C2CC2)c(Cc2ccc(F)cc2)n1)C(N)=O [Example 155, 5-Cyclopropyl-6-(4-fluoro-benzyl)-pyridine-2-carboxylic acid ((S)-1-carbamoyl-3-methyl-butyl)-amide]
pEC50 [1]: 9.15 | pEC50 [2]: 6.91

COCCOc1nc(C(=O)N[C@@H](CC(C)C)C(N)=O)ccc1C1CC1 [Example 142, 5-Cyclopropyl-6-(2-methoxy-ethoxy)-pyridine-2-carboxylic acid ((S)-1-carbamoyl-3-methyl-butyl)-amide]
pEC50 [1]: 7.84 | pEC50 [2]: < 5.00

CCOC(=O)C(CC)(CC)NC(=O)c1ccc(C2CC2)c(S(=O)(=O)CC(C)C)n1 [Example 360, 2-{[5-Cyclopropyl-6-(2-methyl-propane-1-sulfonyl)-pyridine-2-carbonyl]-amino}-2-ethyl-butyric acid ethyl ester]
pEC50 [1]: 8.62 | pEC50 [2]: 7.05

Cc1ccc(C(=O)NC(C)(C)c2ncco2)nc1-c1cccc(Cl)c1 [Example 49, 6-(3-Chloro-phenyl)-5-methyl-pyridine-2-carboxylic acid (1-methyl-1-oxazol-2-yl-ethyl)-amide]
pEC50 [1]: 6.51 | pEC50 [2]: < 5.00
